In paper PMC3323305 (2011):

Target: 18-kDa Translocator Protein (TSPO) (Homo sapiens, UniProt P30536, T147A)
Assay: radioligand competition against [3H]PK11195 in human platelet membranes
Format: binding

Chain of 18-kDa Translocator Protein (TSPO) (P30536 2-169 T147A): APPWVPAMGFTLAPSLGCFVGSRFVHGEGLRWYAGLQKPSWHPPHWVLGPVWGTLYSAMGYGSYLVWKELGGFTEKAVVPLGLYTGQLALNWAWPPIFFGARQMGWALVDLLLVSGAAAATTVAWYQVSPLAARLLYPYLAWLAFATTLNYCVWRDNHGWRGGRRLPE

- Ki: 2.17 ± 0.17 nM
SMILES: COc1ccccc1CN(C(C)=O)c1cnccc1Oc1ccccc1 [PBR28]
